# Laboratory results: patent EP0588608A2, “Tricyclic compounds and pharmaceutical compositions containing them” (KYOWA HAKKO KOGYO CO., LTD., priority 1992, dated 1994)
# What was measured:
# ACAT = ACAT inhibiting activity test using HepG2 cells; format: cell-based; conditions: 10⁻⁶M test compound, human cultured cell line HepG2, [14C]-oleic acid incorporation into cholesterol ester; 1 µM
# Method: The ACAT inhibiting activity test using cells of human cultured cell line HepG2 was carried out in accordance with the method of Goldstein et al as described in Methods Enzymology, 98, 241, 1983. 5 x 10⁵ cells/well of human cultured cell line HepG2 were pre-cultured in 5% LPDS (rabbit lipoprotein-deficient serum)-DMEM (Dulbecco Modified Eagle Medium) overnight, and the medium was changed for a fresh 5% LPDS-DMEM (1 mℓ/well). To the medium having the cells were added 3 µℓ, as a whole, of cholesterol and 25-OH-cholesterol as dissolved in ethanol (with the final concentration being 10 µg/mℓ and 5 µg/mℓ, respectively) and 10 µℓ of a test compound (shown in Table 3 below) as dissolved in methanol (with the final concentration being 10⁻⁶M). The cells were cultured for 4 hours. Then, 10 µℓ (0.42 µCi/0.1 µmol/well) of [¹⁴C]-oleic acid-BSA (bovine serum albumin) complex was added to the medium, and the cells were cultured for further 2 hours. After the cultured cells were washed, the lipid of the cells was extracted with 0.5 mℓ/well of hexane/isopropanol (3/2) containing [3H]-cholesterol oleic acid 2000 dpm. The extract was dried to a solid under reduced pressure and the solid was fractionated by silica gel thin layer chromatography using a developing solvent of petroleum ether/diethyl ether/acetic acid (170/30/1) whereupon the radioactivity of the spot of the cholesterol ester was measured with a liquid scintillation counter. Subtracting the radioactivity of the blank test to which cholesterol and 25-OH-cholesterol were not added from the radioactivity as measured above gives the radioactivity of the test compound. The ACAT inhibiting activity of the test compound was calculated from the following equation, based on the radioactivity of the control group as obtained in the same manner as above without using the test compound. ACAT Inhibition (%) = {[Radioactivity of Control Group) - (Radioactivity of Test Compound)]/(Radioactivity of Control Group)} x 100
# male ddy strain mice = test: Test for acute toxicity (minimum lethal dose, oral); format: in vivo; conditions: orally administered, mortality observed seven days after administration
# Method: Groups of 3 male ddy strain mice weighing 20±1g were used. The test compounds were orally administered. Seven days after administration, the mortality was observed and the minimum lethal dose (MLD) was determined.
SMILES,Percentage of ACAT Inhibition (ACAT),Acute Toxicity (MLD) (male ddy strain mice)
"Cc1ccc2c(c1)C(CNC(=O)Nc1c(C(C)C)cccc1C(C)C)c1ccccc1CO2 (centres unmarked) [Compound 1, N-(2,6-diisopropylphenyl)-N'-(2-methyl-6,11-dihydrodibenz[b,e]oxepin-11-ylmethyl)urea]",99%,–
"CC(C)c1cccc(C(C)C)c1NC(=O)OCC1c2ccccc2COc2ccccc21 (centres unmarked) [Compound 6, (6,11-Dihydrodibenz[b,e]oxepin-11-ylmethyl)-(2,6-diisopropylphenyl)carbamate]",40%,–
"CC(C)c1cccc(C(C)C)c1NC(=O)NCC1c2ccccc2COc2ccc(Br)cc21 (centres unmarked) [Compound 2, N-(2,6-diisopropylphenyl)-N'-(2-bromo-6,11-dihydrodibenz[b,e]oxepin-11-ylmethyl)urea]",98%,>300 mg/kg
CC(C)c1cccc(C(C)C)c1NC(=O)NC=C1c2ccccc2COc2ccccc21 [Compound 4],93%,–
CC(C)c1cccc(C(C)C)c1NC(=O)NC=C1c2ccccc2CCc2ccccc21 [Compound 5],94%,>300 mg/kg
"Cc1cc2c(c(C)c1Br)C(CNC(=O)Nc1c(C(C)C)cccc1C(C)C)c1ccccc1CO2 (centres unmarked) [Compound 3, N-(2,6-diisopropylphenyl)-N'-(2-bromo-1,3-dimethyl-6,11-dihydrobenz[b,e]oxepin-11-ylmethyl)urea]",97%,–
